Tested on: stage II and III CRC
Assay: Kaplan-Meier DFS and OS estimates in validation cohort patients treated with 5-FU-based adjuvant chemotherapy
Format: in vivo
Settings: 167 stage II and III CRC patients, 5-FU-based adjuvant chemotherapy for 6 months after tumor resection
Procedure: Validation Patient Cohort. This group included a total of 237 CRC patients (65 stage II, 102 stage III, and 70 stage IV) that were enrolled as part of a clinical trial conducted at the Hospital Clinic, Barcelona, Spain. Patients in this clinical trial were enrolled between 1996 and 2008, and the median follow-up was 4.7 years in patients that were alive at last follow-up, and 3.5 years for all patients. All stage II and III patients were treated with 5-FU-based adjuvant chemotherapy following resection of the primary tumor; all stage IV patients were treated with 5-FU and oxaliplatin (Takahashi, et al., 2012). Normal colonic mucosa (n=20) from healthy individuals was obtained from the Pathology Department of the Hospital Clinic of Barcelona and included as controls. This study was approved by the Institutional Review Board (IRB) of Hospital Clinic, Barcelona, Spain, and a written informed consent was obtained from all patients.
Distributions in the validation cohort are presented as mean (SD) or median (range) depending on level of skewness in the data for continuous variables, or as counts (percentage) for categorical variables. Nonparametric tests (rank sum, Kruskal Wallace) were used to compare expression between groups. Kaplan Meier and Cox regression models were used to assess association with time to event outcomes that included overall survival (OS), defined as time from diagnosis to death, and disease free survival (DFS) defined as time from diagnosis to disease recurrence or death. Due to the scale of miR320e expression, hazard ratios are presented as the change in risk of a person at the 75th percentile relative to a person at the 25th percentile of miR-320e distribution. This can be interpreted as the increase in risk due to a patient moving from the middle of the bottom half of the miR-320e distribution to the middle of the top half of the distribution. Bootstrapping was used to calculate an optimism corrected c-index, analogous to the area under the receiver operating characteristic curve (Steyerberg, et al., 2011). A c-index of 0.5 denotes random predictions, whereas a c index of 1 denotes perfect predictions.
Higher expression miR320e is associated with poor outcome in patients with stage II and III CRC. To determine the potential prognostic significance of miR-320e expression, Cox regression models were utilized with the miRNA expression levels considered as continuous variables. There were 167 stage II and III CRC patients in the validation cohort with sufficient data for these analyses. All of these patients were treated with 5-FU-based adjuvant chemotherapy for 6 months subsequent to tumor resection. Of these patients, 65 out of 167 (38.9%) were stage II and the remainder were stage III. […]

Structure (SMILES): O=c1[nH]cc(F)c(=O)[nH]1 [5-FU, 5-fluorouracil]
- 2-year Kaplan-Meier DFS estimate (2 years): 78.32%
- 2-year OS estimate (2 years): 91.57%
- 5-year Kaplan-Meier DFS estimate (5 years): 63.96%
- 5-year OS estimate (5 years): 78.52%

Reference: patent US10260105B2, “MiR-320e and colorectal cancer” (BAYLOR RESEARCH INSTITUTE, priority 2014, dated 2019)
